Consider one compound from patent publication US8912121B2, “Herbicidal compositions comprising 4-amino-3-chloro-5-fluoro-6-(4-chloro-2-fluoro-3-methoxyphenyl)pyridine-2-carboxylic acid or a derivative thereof and certain PS II inhibitors” (Dow Agrosciences LLC, priority 2012, dated 2014).

Assay [1] deals with IPOHE (Ipomoea hederacea, ivyleaf morningglory). The experiment in a line: Postemergence foliar-applied mixtures, direct seeded rice, greenhouse. It counts as in vivo, Ipomoea hederacea Jacq. The following applies: post-emergence, 480 h. The text has this:
Seeds or nutlets of the desired test plant species were planted in a soil matrix prepared by mixing a loam or sandy loam soil (e.g., 28.6 percent silt, 18.8 percent clay, and 52.6 percent sand, with a pH of about 5.8 and an organic matter content of about 1.8 percent) and calcareous grit in an 80 to 20 ratio. The soil matrix was contained in plastic pots with a volume of 1 quart and a surface area of 83.6 square centimeters (cm^2). When required to ensure good germination and healthy plants, a fungicide treatment and/or other chemical or physical treatment was applied. The plants were grown for 8-22 days in a greenhouse with an approximate 14 h photoperiod which was maintained at about 29° C. during the day and 26° C. during the night. Nutrients (Peters Excel® 15-5-15 5-Ca 2-Mg and iron chelate) were applied in the irrigation solution as needed and water was added on a regular basis. Supplemental lighting was provided with overhead metal halide 1000-Watt lamps as necessary. The plants were employed for testing when they reached the first through fourth true leaf stage.
Treatments consisted of the acid or esters of 4-amino-3-chloro-5-fluoro-6-(4-chloro-2-fluoro-3-methoxy-phenyl) pyridine-2-carboxylic acid (Compound A), each formulated as an SC (suspension concentrate), and various herbicidal components alone and in combination. Forms of compound A were applied on an acid equivalent basis.
Other herbicidal components were applied on an active ingredient basis and included Photosystem II (PSII)-inhibiting herbicides propanil formulated as Stam® M4 EC, bentazon-sodium formulated as Basagran®, atrazine formulated as Atrazine 90 WDG, bromoxynil octanoate ester formulated as Buctril®, simetryne (technical grade material), simazine formulated as Princep® Caliber 90, ioxynil (technical grade material), cyanazine (technical grade material), and hexazinone (technical grade material).
Treatment requirements were calculated based upon the rates being tested, the concentration of active ingredient or acid equivalent in the formulation, and a 12 mL application volume at a rate of 187 L/ha.
For treatments comprised of formulated compounds, measured amounts of compounds were placed individually in 25 mL glass vials and diluted in a volume of 1.25% (v/v) Agri-Dex® crop oil concentrated to obtain 12× stock solutions. […] Application solutions were prepared by adding an appropriate amount of each stock solution (e.g., 1 mL) and diluted to the appropriate final concentrations with the addition of 10 mL of an aqueous mixture of 1.25% (v/v) crop oil concentrate so that the final spray solutions contained 1.25+/−0.05% (v/v) crop oil concentrate.
For treatments comprised of technical compounds, weighed amounts can be placed individually in 25 mL glass vials and dissolved in a volume of 97:3 v/v acetone/DMSO to obtain 12× stock solutions. […] Application solutions can be prepared by adding an appropriate amount of each stock solution (e.g., 1 mL) and diluted to the appropriate final concentrations with the addition of 10 mL of an aqueous mixture of 1.5% (v/v) crop oil concentrate so that the final spray solutions contain 1.25% (v/v) crop oil concentrate. When technical materials are used, the concentrated stock solutions can be added to the spray solutions so that the final acetone and DMSO concentrations of the application solutions are 16.2% and 0.5%, respectively.
For treatments comprised of formulated and technical compounds, weighed amounts of the technical materials were placed individually in 25 mL glass vials and dissolved in a volume of 97:3 v/v acetone/DMSO to obtain 12× stock solutions, and measured amounts of the formulated compounds were placed individually in 25 mL glass vials and diluted in a volume of 1.5% (v/v) crop oil concentrate or water to obtain 12× stock solutions. […]

Assay [2] concerns ECHOR (Echinochloa oryzoides, early watergrass). The assay is described as follows: In-water applied mixtures, transplanted paddy rice, greenhouse. It counts as in vivo, Echinochloa oryzoides (Ard.) Fritsch. The note with it: 70 g ae/ha; 20 DAA. As to the method: (§1) Weed seeds or nutlets of the desired test plant species were planted in puddled soil (mud) prepared by mixing a shredded, non-sterilized mineral soil (50.5 percent silt, 25.5 percent clay, and 24 percent sand, with a pH of about 7.6 and an organic matter content of about 2.9 percent) and water at a 1:1 volumetric ratio. The prepared mud was dispensed in 365 mL aliquots into 16-ounce (oz.) non-perforated plastic pots with a surface area of 86.59 square centimeters (cm^2) leaving a headspace of 3 centimeters (cm) in each pot Mud was allowed to dry overnight prior to planting or transplanting. Rice seeds were planted in Sun Gro MetroMix® 306 planting mixture, which typically has a pH of 6.0 to 6.8 and an organic matter content of about 30 percent, in plastic plug trays. Seedlings at the second or third leaf stage of growth were transplanted into 840 mL of mud contained in 32-oz. non-perforated plastic pots with a surface area of 86.59 cm^2 4 days prior to herbicide application. The paddy was created by filling the headspace of the pots with 2.5 to 3 cm of water. When required to ensure good germination and healthy plants, a fungicide treatment and/or other chemical or physical treatment was applied. The plants were grown for 4-22 days in a greenhouse with an approximate 14 h photoperiod which was maintained at about 29° C during the day and 26° C. during the night. Nutrients were added as Osmocote® (19:6:12, N:P:K+ minor nutrients) at 2 g per 16-oz. pot and 4 g per 32-oz. pot. Water was added on a regular basis to maintain the paddy flood, and supplemental lighting was provided with overhead metal halide 1000-Watt lamps as necessary. The plants were employed for testing when they reached the first through fourth true leaf stage.
(§2) Treatments consisted of the acid or esters of 4-amino-3-chloro-5-fluoro-6-(4-chloro-2-fluoro-3-methoxy-phenyl)pyridine-2-carboxylic acid (compound A) each formulated as an SC (suspension concentrate) and various herbicidal components alone and in combination. Forms of compound A were applied on an acid equivalent basis.
(§3) Other herbicidal components were applied on an active ingredient basis and included photosystem II (PSII)-inhibits propanil formulated as […] bentazon-sodium formulated as Basagran®, and simetryne (technical grade material).
(§4) Treatment requirements for each compound or herbicidal component were calculated based upon the rates being tested, the concentration of active ingredient or acid equivalent in the formulation, an application volume of 2 mL per component per pot, and an application area of 86.59 cm^2 per pot.
(§5) For formulated compounds, a measured amount was placed in an individual 100 or 200 mL glass vial and was dissolved in a volume of 1.25% (v/v) Agri-Dex® crop oil concentrate to obtain application solutions.
(§6) For technical grade compounds, a weighed amount was placed in an individual 100 to 200 mL glass vial and was dissolved in a volume of acetone to obtain concentrated stock solutions. […] The concentrated stock solutions obtained were diluted with an equivalent volume of an aqueous mixture containing 2.5% (v/v) crop oil concentrate so that the final application solutions contained 1.25% (v/v) crop oil concentrate.
(§7) Applications were made by injecting with a pipetter appropriate amounts of the application solutions, individually and sequentially, into the aqueous layer of the paddy. Control plants were treated in the same manner with the solvent blank. Applications were made so that all treated plant material received the same concentrations of acetone and crop oil concentrate.
(§8) The treated plants and control plants were placed in a greenhouse as described above and water was added as needed to maintain a paddy flood. After approximately 3 weeks the condition of the test plants as compared with that of the untreated plants was determined visually and scored on a scale of 0 to 100 percent where 0 corresponds to no injury or growth inhibition and 100 corresponds to complete kill. […]

Assay [3] deals with SCPMA (Schoenoplectus maritimus, sea clubrush). The description is as above. It counts as in vivo, Schoenoplectus maritimus (L.) Lye. The note with it: 20 DAA. Here is the method:
as §1, §2, §3, §4, §5, §6, §7, §8

Take `CCCCOC(=O)c1nc(-c2ccc(Cl)c(OC)c2F)c(F)c(N)c1Cl` [Compound A n-Butyl Ester]: the pest or weed control at 16 g/ha in assay [1] (read-out: Visual Weed Control (%) Obs, 16 g ae/ha, 20 DAA) stood at 15%. Also, in assay [1] (read-out: Visual Weed Control (%) Obs, 17.5 g ae/ha, 20 DAA), the pest or weed control at 17.5 g/ha is 48%. The “Visual Weed Control (%) Obs” value was 40% in assay [2], 0% in assay [3] (35 g ae/ha) and 0% in assay [3] (70 g ae/ha).
